Key:
EED (1-441)-His protein = EED (1-441)-His protein (Homo sapiens (Human), UniProt O75530); assay: EED-H3K27Me3 peptide competition binding assay by AlphaScreen; conditions: read-out: (a) IC50 EED Alphascreen binding Qualified
Source text: EED-H3K27Me3 peptide competition binding assay by AlphaScreen (α-screen)

[1] = target: wild type PRC2 (wtPRC2) complex (Homo sapiens (Human), UniProt O75530); assay: EED LC-MS assay; assay type: biochemical; conditions: read-out: (b) IC50 EED LC-MS Qualified
wild type PRC2 (wtPRC2) complex, sequence (O75530 whole entry): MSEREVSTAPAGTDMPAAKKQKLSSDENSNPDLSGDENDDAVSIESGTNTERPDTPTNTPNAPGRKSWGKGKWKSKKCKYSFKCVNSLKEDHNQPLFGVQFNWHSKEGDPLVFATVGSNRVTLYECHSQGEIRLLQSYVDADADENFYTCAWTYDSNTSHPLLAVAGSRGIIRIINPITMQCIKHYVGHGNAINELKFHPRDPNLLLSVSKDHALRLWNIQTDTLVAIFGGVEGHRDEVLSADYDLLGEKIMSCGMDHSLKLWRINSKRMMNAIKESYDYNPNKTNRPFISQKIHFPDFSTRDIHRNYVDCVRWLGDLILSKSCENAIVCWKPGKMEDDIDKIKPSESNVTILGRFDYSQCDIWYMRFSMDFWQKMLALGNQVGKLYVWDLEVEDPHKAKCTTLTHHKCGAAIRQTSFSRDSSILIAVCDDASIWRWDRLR
wild type PRC2 (wtPRC2) complex, sequence (Q15910 whole entry partner): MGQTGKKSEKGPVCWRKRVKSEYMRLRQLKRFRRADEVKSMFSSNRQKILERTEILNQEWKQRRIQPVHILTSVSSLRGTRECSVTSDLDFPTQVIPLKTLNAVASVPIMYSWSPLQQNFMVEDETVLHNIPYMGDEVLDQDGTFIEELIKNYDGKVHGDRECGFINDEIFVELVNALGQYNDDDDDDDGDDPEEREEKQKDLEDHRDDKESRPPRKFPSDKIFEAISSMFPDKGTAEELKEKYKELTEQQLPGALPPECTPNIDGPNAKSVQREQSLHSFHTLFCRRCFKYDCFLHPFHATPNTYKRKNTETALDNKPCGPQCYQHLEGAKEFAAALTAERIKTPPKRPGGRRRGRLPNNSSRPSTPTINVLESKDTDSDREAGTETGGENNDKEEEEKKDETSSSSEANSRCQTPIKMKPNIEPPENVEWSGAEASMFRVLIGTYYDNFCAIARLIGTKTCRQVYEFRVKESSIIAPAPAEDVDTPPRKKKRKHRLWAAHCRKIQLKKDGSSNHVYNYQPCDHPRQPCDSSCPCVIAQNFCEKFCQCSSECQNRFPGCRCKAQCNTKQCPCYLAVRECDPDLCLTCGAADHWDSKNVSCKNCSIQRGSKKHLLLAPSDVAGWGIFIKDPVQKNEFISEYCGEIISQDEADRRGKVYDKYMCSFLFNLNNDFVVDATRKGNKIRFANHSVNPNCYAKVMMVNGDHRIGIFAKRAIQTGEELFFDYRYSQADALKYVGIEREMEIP
wild type PRC2 (wtPRC2) complex, sequence (Q15022 whole entry partner): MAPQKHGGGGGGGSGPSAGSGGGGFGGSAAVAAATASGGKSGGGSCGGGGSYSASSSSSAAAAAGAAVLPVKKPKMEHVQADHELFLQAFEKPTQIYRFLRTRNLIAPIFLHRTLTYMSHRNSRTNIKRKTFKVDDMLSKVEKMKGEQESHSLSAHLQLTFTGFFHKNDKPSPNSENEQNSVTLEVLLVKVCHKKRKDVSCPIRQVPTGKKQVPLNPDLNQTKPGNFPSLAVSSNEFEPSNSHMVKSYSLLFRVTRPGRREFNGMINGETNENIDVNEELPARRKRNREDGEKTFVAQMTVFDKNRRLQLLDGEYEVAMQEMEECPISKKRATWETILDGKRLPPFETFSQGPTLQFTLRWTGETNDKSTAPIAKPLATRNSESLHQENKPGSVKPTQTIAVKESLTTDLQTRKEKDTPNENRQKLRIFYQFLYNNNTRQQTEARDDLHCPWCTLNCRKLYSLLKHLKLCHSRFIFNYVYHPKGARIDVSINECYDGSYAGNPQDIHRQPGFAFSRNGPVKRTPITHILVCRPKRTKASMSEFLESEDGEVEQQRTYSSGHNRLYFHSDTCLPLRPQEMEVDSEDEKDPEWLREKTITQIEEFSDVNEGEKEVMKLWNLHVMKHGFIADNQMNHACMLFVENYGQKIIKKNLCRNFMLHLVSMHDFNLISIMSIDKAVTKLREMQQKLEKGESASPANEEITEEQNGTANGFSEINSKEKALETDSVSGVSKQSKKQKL
Method: A 6 μL solution of 3 μM of the peptide substrate H3K27Me0 (histone H3[21-44]-biotin) in reaction buffer was added to initiate each reaction. […] ELISA (H3K27 Methylation) Assay

EED (1-441)-His protein, sequence (O75530 whole entry): as the sequence (O75530 whole entry) above

Structure (SMILES)	IC50 (EED (1-441)-His protein) [nM]	IC50 [1] [nM]
Cc1c(-c2cnc(NCc3cccc4c3CCO4)n3cnnc23)cnn1C [Example 64, N-((2,3-dihydrobenzofuran-4-yl)methyl)-8-(1,5-dimethyl-1H-pyrazol-4-yl)-[1,2,4]triazolo[4,3-c]pyrimidin-5-amine]	12.4	41.3
c1cc(CNc2ncc(-c3ccc(C4CC4)nc3)c3nncn23)c2c(c1)OCC2 [Example 65, 8-(6-cyclopropylpyridin-3-yl)-N-((2,3-dihydrobenzofuran-4-yl)methyl)-[1,2,4]triazolo[4,3-c]pyrimidin-5-amine]	18.3	20
COCCn1nc(C)c(-c2cnc(NCc3cccc4c3CCO4)n3cnnc23)c1C [Example 66, N-((2,3-dihydrobenzofuran-4-yl)methyl)-8-(1-(2-methoxyethyl)-3,5-dimethyl-1H-pyrazol-4-yl)-[1,2,4]triazolo[4,3-c]pyrimidin-5-amine]	15.6	44.7
Cc1nn(CCO)c(C)c1-c1cnc(NCc2cccc3c2CCO3)n2cnnc12 [Example 67, 2-(4-(5-(((2,3-dihydrobenzofuran-4-yl)methyl)amino)-[1,2,4]triazolo[4,3-c]pyrimidin-8-yl)-3,5-dimethyl-1H-pyrazol-1-yl)ethanol]	30.9	90.2
O=C(c1ccc(-c2cnc(NCc3cccc4c3CCO4)n3cnnc23)cn1)N1CCOCC1 [Example 68, (5-(5-(((2,3-dihydrobenzofuran-4-yl)methyl)amino)-[1,2,4]triazolo[4,3-c]pyrimidin-8-yl)pyridin-2-yl)(morpholino)methanone]	19.7	36.7
c1cc(CNc2ncc(-c3ccc(N4CCOCC4)nc3)c3nncn23)c2c(c1)OCC2 [Example 69, N-((2,3-dihydrobenzofuran-4-yl)methyl)-8-(6-morpholinopyridin-3-yl)-[1,2,4]triazolo[4,3-c]pyrimidin-5-amine]	182	377
Cc1cc(-c2cnc(NCc3cccc4c3CCO4)n3cnnc23)cnc1S(C)(=O)=O [Example 70, N-((2,3-dihydrobenzofuran-4-yl)methyl)-8-(5-methyl-6-(methylsulfonyl)pyridin-3-yl)-[1,2,4]triazolo[4,3-c]pyrimidin-5-amine]	11.5	21.1
Cc1noc(C)c1-c1cnc(NCc2c(F)ccc3c2CCO3)n2cnnc12 [Example 71, 8-(3,5-dimethylisoxazol-4-yl)-N-((5-fluoro-2,3-dihydrobenzofuran-4-yl)methyl)-[1,2,4]triazolo[4,3-c]pyrimidin-5-amine]	9	18.9
CN1CCN(C(=O)c2ccc(-c3cnc(NCc4c(F)ccc5c4CCO5)n4cnnc34)cc2)CC1 [Example 72, (4-(5-(((5-fluoro-2,3-dihydrobenzofuran-4-yl)methyl)amino)-[1,2,4]triazolo[4,3-c]pyrimidin-8-yl)phenyl)(4-methylpiperazin-1-yl)methanone]	9.3	17.5
Cc1cc(-c2cnc(NCc3cccc4c3CCO4)n3cnnc23)cnc1N1CCOCC1 [Example 73, N-((2,3-dihydrobenzofuran-4-yl)methyl)-8-(5-methyl-6-morpholinopyridin-3-yl)-[1,2,4]triazolo[4,3-c]pyrimidin-5-amine]	12.5	17.4
CC1CN(c2ccc(-c3cnc(NCc4cccc5c4CCO5)n4cnnc34)cn2)CC(C)O1 (stereo not drawn) [Example 74, N-((2,3-dihydrobenzofuran-4-yl)methyl)-8-(6-(2,6-dimethylmorpholino)pyridin-3-yl)-[1,2,4]triazolo[4,3-c]pyrimidin-5-amine]	89.6	139
CS(=O)(=O)CCOc1ccc(-c2cnc(NCc3cccc4c3CCO4)n3cnnc23)cc1 [Example 75, N-((2,3-dihydrobenzofuran-4-yl)methyl)-8-(4-(2-(methylsulfonyl)ethoxy)phenyl)-[1,2,4]triazolo[4,3-c]pyrimidin-5-amine]	34	37.5
Nc1ccncc1-c1cnc(NCc2cccc3c2CCO3)n2cnnc12 [Example 76, 8-(4-aminopyridin-3-yl)-N-((2,3-dihydrobenzofuran-4-yl)methyl)-[1,2,4]triazolo[4,3-c]pyrimidin-5-amine]	27.5	56.9
c1cc(CNc2ncc(-c3cncc(N4CCNCC4)c3)c3nncn23)c2c(c1)OCC2 [Example 77, N-((2,3-dihydrobenzofuran-4-yl)methyl)-8-(5-(piperazin-1-yl)pyridin-3-yl)-[1,2,4]triazolo[4,3-c]pyrimidin-5-amine]	21.6	52.3
FC(F)Oc1ccc(-c2cnc(NCc3cccc4c3CCO4)n3cnnc23)cn1 [Example 78, 8-(6-(difluoromethoxy)pyridin-3-yl)-N-((2,3-dihydrobenzofuran-4-yl)methyl)-[1,2,4]triazolo[4,3-c]pyrimidin-5-amine]	103	160
CNC(=O)c1ccc(-c2cnc(NCc3cccc4c3CCO4)n3cnnc23)cn1 [Example 79, 5-(5-(((2,3-dihydrobenzofuran-4-yl)methyl)amino)-[1,2,4]triazolo[4,3-c]pyrimidin-8-yl)-N-methylpicolinamide]	57.5	103
O=C(c1ccc(-c2cnc(NCc3cccc4c3CCO4)n3cnnc23)cn1)N1CCCC1 [Example 80, (5-(5-(((2,3-dihydrobenzofuran-4-yl)methyl)amino)-[1,2,4]triazolo[4,3-c]pyrimidin-8-yl)pyridin-2-yl)(pyrrolidin-1-yl)methanone]	3.7	8.8
c1cc(CNc2ncc(-c3ccc(N4CCSCC4)nc3)c3nncn23)c2c(c1)OCC2 [Example 81, N-((2,3-dihydrobenzofuran-4-yl)methyl)-8-(6-thiomorpholinopyridin-3-yl)-[1,2,4]triazolo[4,3-c]pyrimidin-5-amine]	14.6	19.1
Cc1nn(C(C)C)cc1-c1cnc(NCc2cccc3c2CCO3)n2cnnc12 [Example 82, N-((2,3-dihydrobenzofuran-4-yl)methyl)-8-(1-isopropyl-3-methyl-1H-pyrazol-4-yl)-[1,2,4]triazolo[4,3-c]pyrimidin-5-amine]	16.7	30.9
COCc1ncc(-c2cnc(NCc3cccc4c3CCO4)n3cnnc23)cc1C [Example 83, N-((2,3-dihydrobenzofuran-4-yl)methyl)-8-(6-(methoxymethyl)-5-methylpyridin-3-yl)-[1,2,4]triazolo[4,3-c]pyrimidin-5-amine]	10.5	22.8
CC(O)c1ccc(-c2cnc(NCc3cccc4c3CCO4)n3cnnc23)cn1 (stereo not drawn) [Example 84, 1-(5-(5-(((2,3-dihydrobenzofuran-4-yl)methyl)amino)-[1,2,4]triazolo[4,3-c]pyrimidin-8-yl)pyridin-2-yl)ethanol]	6.3	12.9
Fc1ccncc1-c1cnc(NCc2cccc3c2CCO3)n2cnnc12 [Example 85, N-((2,3-dihydrobenzofuran-4-yl)methyl)-8-(4-fluoropyridin-3-yl)-[1,2,4]triazolo[4,3-c]pyrimidin-5-amine]	8.3	26
COCCc1ccc(-c2cnc(NCc3cccc4c3CCO4)n3cnnc23)cn1 [Example 86, N-((2,3-dihydrobenzofuran-4-yl)methyl)-8-(6-(2-methoxyethyl)pyridin-3-yl)-[1,2,4]triazolo[4,3-c]pyrimidin-5-amine]	11.1	26.7
O=C1CCCN1c1cncc(-c2cnc(NCc3cccc4c3CCO4)n3cnnc23)c1 [Example 87, 1-(5-(5-(((2,3-dihydrobenzofuran-4-yl)methyl)amino)-[1,2,4]triazolo[4,3-c]pyrimidin-8-yl)pyridin-3-yl)pyrrolidin-2-one]	41.8	83.9
CN(C)c1ncc(-c2cnc(NCc3cccc4c3CCO4)n3cnnc23)cn1 [Example 88, N-((2,3-dihydrobenzofuran-4-yl)methyl)-8-(2-(dimethylamino)pyrimidin-5-yl)-[1,2,4]triazolo[4,3-c]pyrimidin-5-amine]	25.7	34.7
CN(C)CCc1cccc(-c2cnc(NCc3cccc4c3CCO4)n3cnnc23)c1 [Example 89, N-((2,3-dihydrobenzofuran-4-yl)methyl)-8-(3-(2-(dimethylamino)ethyl)phenyl)-[1,2,4]triazolo[4,3-c]pyrimidin-5-amine]	4.5	10.3
CC1(C)COC(c2cncc(-c3cnc(NCc4cccc5c4CCO5)n4cnnc34)c2)=N1 [Example 90, N-((2,3-dihydrobenzofuran-4-yl)methyl)-8-(5-(4,4-dimethyl-4,5-dihydrooxazol-2-yl)pyridin-3-yl)-[1,2,4]triazolo[4,3-c]pyrimidin-5-amine]	13.1	30.3
Fc1ccc2c(c1CNc1ncc(-c3ccc(N4CCSCC4)nc3)c3nncn13)CCO2 [Example 91, N-((5-fluoro-2,3-dihydrobenzofuran-4-yl)methyl)-8-(6-thiomorpholinopyridin-3-yl)-[1,2,4]triazolo[4,3-c]pyrimidin-5-amine]	9.9	15.3
Fc1ccc2c(c1CNc1ncc(-c3ccc(N4CCOCC4)nc3)c3nncn13)CCO2 [Example 92, N-((5-fluoro-2,3-dihydrobenzofuran-4-yl)methyl)-8-(6-morpholinopyridin-3-yl)-[1,2,4]triazolo[4,3-c]pyrimidin-5-amine]	19.2	51.5
N#Cc1ccc(-c2cnc(NCc3c(F)ccc4c3CCO4)n3cnnc23)cn1 [Example 93, 5-(5-(((5-fluoro-2,3-dihydrobenzofuran-4-yl)methyl)amino)-[1,2,4]triazolo[4,3-c]pyrimidin-8-yl)picolinonitrile]	7.9	12.5

Reference: patent US9580437B2, “Triazolopyrimidine compounds and uses thereof” (Novartis AG, priority 2014, dated 2017)
